Entries after “also recorded” stand apart in the source; their conditions may differ. Read-outs that look alike come from different tables or passages of the source.
What was measured:
murine CD4 = test: Immunosuppression after 6 or 24 hours pretreatment, co-culture with murine CD4 (FIG. 15); format: cell-based; conditions: 3 days co-culture
Method: FIG. 15. […] MSC were treated for 6 and 24 hours oligomycin. Then, the media was removed, the cells were washed and these pretreated MSCs were co-cultured during 3 days with freshly isolated murine CD4 that were stained with cell trace violet. Proliferation of CD4+ was quantified by flow cytometry and graphed. N=4 different mice and * p<0.05.
The inventor developed an incubation experiment were the MSC were treated for 6 and 24 hours with an ATP-Synthase inhibitor, such as Oligomycin. After this treatment, the media with ATP-synthase inhibitor was removed, the MSCs were washed, and the MSCs were co-cultured during 3 days with murine freshly isolated CD4 and their effects were compared.

GVHD mice = test: In vivo model of graft versus host disease (GVHD), Kaplan-Meier survival (FIG. 9); conditions: UC-MSCs pre-treated or not with oligomycin
Excerpt: FIG. 9. […] A) Experimental design of the in vivo model of GVHD. B) Kaplan-Meier plot showing the survival rate of GVHD mice compared to UC-MSCs that were pre-treated or not with oligomycin. N=15 mice per experimental group performed at least 2 times independently—* p<0.05.

PBMC = test: Coculture of human BM-MSCs, UC-MSCs or MenSC with phytohemaglutinine-activated PBMC, T-CD4 and T-CD8 proliferation by FACS (FIG. 12); format: cell-based; conditions: BM-MSCs, 1 MSCs:20 PBMCs ratio, 4 days
Method: FIG. 12. […] Human BM-MSCs, UC-MSCs or MenSC were coculture with freshly isolated PBMC activated with phytohemaglutinine in a 1 MSCs:20 PBMCs ratio. After 4 days proliferation was measured by quantifying the decrease in cell fluorescence on either T-CD4 (A) or T-CD8 (B) cells in PBMCs by FACS. Results are represented as mean and SD of 3 independent experiments using at least 3 different PBMC donors and 2 different BM-MSCs, MenSC and UC-MSCs donors. Statistical analyses used the non-parametric Friedman test comparing more than two groups (*, p<0.05; **, p<0.01; ***, p<0.005).

mice with DTH = test: In vivo model of delayed type hypersensitivity (DTH), paw swelling (FIG. 8); conditions: mice treated with MSCs pre-incubated with or without oligomycin
[1] = tested on: human mononuclear cells (PBMC); test: Immunosuppression at different oligomycin pretreatment concentrations, co-culture with human PBMC (FIG. 14); format: cell-based; conditions: pretreatment at 0.1 μg/ml, 1 μg/ml and 10 μg/ml; 4 days co-culture
Method: FIG. 14. […] MSC were with different oligomycin concentration (0.1 μg/ml, 1 μg/ml and 10 μg/ml), the media was removed and the cells were washed and cultured with freshly isolated human mononuclear cells (PBMC) that were stained with cell trace violet. Proliferation of CD4+ and CD8+ was quantified after 4 days of co-culturing by flow cytometry and graphed. N=3 PBMC and * p<0.05.
The inventors developed and immunosuppression experiment where the MSCs were pretreated with different concentrations of ATP-Synthase inhibitor, such as Oligomycin, more specifically at 0.1 μg/ml, 1 μg/ml and 10 μg/ml. After the pretreatment, the media with ATP-synthase inhibitor was removed, the MSCs were washed, and the MSC were cultured with freshly isolated human mononuclear cells (PBMC) that were stained with cell trace violet.

UC-MSCs [2] = test: Transmigration of UC-MSCs through a semipermeable membrane with 8 μM pores (FIG. 11); format: cell-based; conditions: quantified at 8 hours and 24 hours; 5% fetal bovine serum in lower chamber
Method: FIG. 11. UC-MSCs pretreated with oligomycin promote their transmigration potential. GlycoStem cells were cultured on a semipermeable membrane with […] diameter pores. Cells were seeded in serum-free medium in the upper chamber, while DMEM medium with 5% fetal bovine serum was added in the lower chamber to induce transmigration of the cells. Cell migration was quantified 8 hours (A and B) and 24 hours (C and D) later. […] N=3 different donors from 3 independent experiments * p<0.05.

UC-MSCs [3] = test: Chondrogenic differentiation of UC-MSCs: micromass, Aggrecan qPCR, Collagen II vs Collagen I ratio (FIG. 5); format: cell-based; conditions: basal media; for ratio of Collagen II vs Collagen I production: compared to MSC in basal media (CTL)
Excerpt: FIG. 5. […] UC-MSCs were differentiated towards chondrogenic lineage. […] The relative expression of the proteoglycan Aggrecan, which is typically expressed in hyaline cartilage, was quantified by qPCR. […] When MSC on basal media (CTL) are compared to MSC treated with inhibitors of the ATP-synthase, these treated MSC present chondrogenic behaviour on the ratio of Collagen II vs Collagen I proportion. […] Also, some inhibitors present the same behaviour than MSC in differentiation media (differentiation) (D).

UC-MSCs [4] = test: Metabolic status (OCR, ECAR, lactate efflux) and surface markers of treated MSCs (FIG. 4); format: cell-based
Excerpt: FIG. 4. […] (A) MSCs treated with ATP-Synthase inhibitors show a diminished oxidative phosphorylation, quantified as oxygen consumption rate (OCR), (B) and an enhanced glycolysis, shown as extracellular acidification rate (ECAR).
In order to determine the efficiency of MSCs treated with ATP-synthase inhibitors, the inventors first evaluated the glycolytic status of UC-MSCs using biochemical parameters such as lactate production and glucose consumption and also if possible, the metabolic status of MSCs treated with ATP-synthase inhibitors was evaluated in real time by measuring the oxygen consumption rate (OCR) or the extra cellular acidification rate (ECAR) by the Seahorse™ technology. Moreover, different functional assays were carried out in order to compare the efficacy of MSCs treated with ATP-synthase inhibitors as compared to non-treated UC-MSCs including evaluation of the differentiation potential towards chondrocytes, viability assays of MSCs, chondroprotection assays, immunosuppression assays and in vivo evaluation using joint inflammation murine models.

| SMILES | suppressive activity (proliferation of CD4+) (murine CD4; 6 hours pretreatment) | suppressive activity (proliferation of CD4+) (murine CD4; 24 hours pretreatment) | survival rate of GVHD mice (GVHD mice) | immunosuppressive abilities of human MSCs (T-CD4 and T-CD8 proliferation) (PBMC) | limb swelling (Paw Swelling) / inflammation in DTH (mice with DTH) | suppressive activity (proliferation of CD4+ and CD8+) [1] | transmigration / migratory capacity (UC-MSCs [2]) | ratio of Collagen II vs Collagen I production (UC-MSCs [3]) | relative expression of the proteoglycan Aggrecan (qPCR) (UC-MSCs [3]; compared to untreated control) | generation of three-dimensional tissue (micromass) / spontaneous differentiation into chondrocytes (UC-MSCs [3]; no differentiation media, 24Hrs pre-treatment) | metabolic switch towards glycolytic dependent metabolism (ECAR/OCR ratio) (UC-MSCs [4]) | Surface markers of UC-MSC (UC-MSCs [4]; after metabolic switch) | metabolic switch towards glycolytic dependent metabolism (ECAR/OCR ratio) (UC-MSCs [4]; listed as Oligomycin) |
| --- | --- | --- | --- | --- | --- | --- | --- | --- | --- | --- | --- | --- | --- |
| CC[C@H]1/C=C/C=C/C[C@@H](C)[C@H](O)[C@@](C)(O)C(=O)[C@@H](C)[C@H](O)[C@@H](C)C(=O)[C@@H](C)[C@H](O)[C@@H](C)/C=C/C(=O)O[C@@H]2[C@H](C)[C@H](CC1)O[C@]1(CC[C@H](C)[C@H](C[C@@H](C)O)O1)[C@H]2C [oligomycin, Oligomycin] | enhanced the suppressive activity of MSCs | enhanced suppressive activity; also recorded: highest enhancement of the MSCs suppression activity | increases the survival rate | enhances the immunosuppressive abilities of human MSCs independent on the origin | increases the therapeutic potential of MSCs | enhanced suppressive activity that is dose dependent | significantly increase their migratory capacity | fold change in the production of collagen type 2 versus collagen type 1 | increased relative expression; also recorded: increase in the relative expression | even greater than the three-dimensional tissue obtained by using the differentiation media alone; also recorded: spontaneously differentiate into chondrocytes; also recorded: stimulates the spontaneous differentiation towards a functional three-dimensional cartilage | inducing a strongly glycolytic-dependent metabolism | not affected | induces a glycolytic dependent metabolism |
| Oc1ccc(C=Cc2cc(O)cc(O)c2)cc1 [resveratrol, Resveratrol] | – | – | – | – | – | – | – | fold change in the production of collagen type 2 versus collagen type 1; also recorded: promote the MSC in basal media to behave as MSC that are in a differentiation media | – | – | – | – | – |
